This is an account of results in US20240408082A1, “METHODS FOR TREATING CANCERS AND TUMORS” (BEYONDSPRING PHARMACEUTICALS, INC., priority 2021, published 2024).

What all share (assay type): cell-based
The test system of assay [1] is Her2-enriched breast cancer models. Nature of the assay: 3D clonogenic assay, Example 2, Her2-enriched breast cancer models. The settings on record: n=6 models. On the procedure:
(§1) The present study investigated plinabulin for anticancer activity ex vivo in 68 out of 71 originally planned patient-derived xenograft (PDX) models representing major cancer types. Experiments were performed using a 3D clonogenic assay in a 96-well format with colony count based on image analysis as a read-out. By using this assay, the investigational compound was assessed for the ability to inhibit anchorage independent growth and ex vivo colony formation of tumor cells in semi-solid medium.
(§2) A master stock solution of plinabulin was prepared by dissolving the compound in DMSO at a concentration of 9.9 mM. Working stock solutions were prepared by diluting the master stock solution with DMSO to a concentration of 0.99 mM (330-fold the highest test concentration). Small aliquots of the master and working stock were stored at −20° C. […]
(§3) Plinabulin was investigated in 68 PDX models representing a number of cancer types. […] The percentage of viable cells was determined in a Neubauer-hemocytometer using trypan blue exclusion. […]
(§4) The clonogenic assay was carried out in a 96 well plate format using ultra low attachment plates. […] Cultures were incubated at 37° C. and 7.5% CO2 in a humidified atmosphere 13 days in total and monitored closely for colony growth using an inverted microscope. […]

The next assay deals with melanoma models. The experiment in a line: 3D clonogenic assay, Example 2, melanoma models. The note with it: n=9 models. On the procedure: as §1, §2, §3, §4
Assay [2] relates to soft tissue sarcoma models. The experiment in a line: 3D clonogenic assay, Example 2, soft tissue sarcoma models. The note with it: n=8 models. The procedure:
as §1, §2, §3, §4

For orientation: IC50 means the midpoint of a concentration-inhibition curve.

As for `CC(C)(C)c1[nH]cnc1/C=c1\[nH]c(=O)/c(=C/c2ccccc2)[nH]c1=O` [plinabulin, (3Z,6Z)-3-Benzylidene-6-{[5-(2-methyl-2-propanyl)-1H-imidazol-4-yl]methylene}-2,5-piperazinedione], the “geometric mean absolute IC70” value (in assay [1]; with melanoma models; in assay [2]) was above 3000 nM throughout. The IC50 in assay [1] (read-out: geom. mean abs. IC50) came to 2250 nM; with melanoma models (read-out: geom. mean abs. IC50) it was 1370 nM; in assay [2] (read-out: geom. mean abs. IC50), 2580 nM.
